Data from US12365687B2 (Hoffmann-La Roche Inc., priority 2021, dated 2025).

Key:
[1] = target: human GABAA α5β2γ1 receptor (Homo sapiens (Human), UniProt P31644+Q8N1C3); experiment: Radioligand binding assay for γ1-containing GABAA subtypes, [3H]RO7239181 competition (α5β2γ1)
Method: (§1) The affinity of compounds at GABAA γ1 subunit-containing receptors was measured by competition for [^3H]RO7239181 (67.3 Ci/mmol; Roche) binding to membranes from HEK293F cells (ThermoFisher R79007) expressing human (transiently transfected) receptors of composition α5β2γ1, α2β2γ1, α1β2γ1.
(§2) Harvested pellets from HEK293F cells expressing the different GABAA receptor subtypes were resuspended in Mannitol Buffer pH 7.2-7.4 (Mannitol 0.29 M, Triethylamine 10 mM, Acetic acid 10 mM, EDTA 1 mM plus protease inhibitors (20 tablets Complete, Roche Diagnostics Cat. No. 05 056 489 001 per liter)), washed two times and then resuspended at 1:10 to 1:15 dilution in the same buffer. Cell disruption was performed by stirring the suspension in a Parr vessel #4637 at 435 psi for 15 minutes, and then the suspensions were centrifuged at 1000×g for 15 minutes at 4° C. (Beckman Avanti J-HC; rotor JS-4.2). The supernatant (S1) was transferred in a 2 l Schott flask and the pellet (P1) was resuspended with Mannitol Buffer up to 175 ml. The resuspended pellet was transferred into a 250 ml Corning centrifugal beaker and centrifuged at 1500×g for 10 minutes at 4° C. (Beckman Avanti J-HC; rotor JS-4.2). The supernatant (S1) was then transferred in the 2 l Schott flask and the pellet was discarded. The supernatants (S1) were centrifuged in 500 ml Beckman polypropylene centrifugal beaker at 15′000×g for 30 minutes at 4° C. (Beckman Avanti J-20 XP; rotor JLA-10.500). The pellet (P2) was resuspended with Mannitol Buffer 1:1 and frozen at −80° C. The supernatant (S2) was centrifuged in 100 ml Beckman polypropylene centrifugal tubes at 48000×g for 50 minutes at 4° C. (Beckman Avanti J-20 XP; rotor JA-18). The supernatant (S3) was discarded and the pellet (P3) was resuspended with 1:1 Mannitol Buffer. The P2 and P3 protein concentration was determined with the BIORAD Standard assay method with bovine serum albumin as standard and measured on the NANO-Drop 1000. The membrane suspension was aliquots (500 μl per tube) and stored at −80° C. until required.
(§3) Membrane homogenates were resuspended and polytronised (Polytron PT1200E Kinematica AG) in Potassium Phosphate 10 mM, KCl 100 mM binding buffer at pH 7.4 to a final assay concentration determined with a previous experiment.
(§4) Assays were incubated to equilibrium for 1 hour at 4° C. and then, membranes were filtered onto unifilter (96-well white microplate with bonded GF/C filters preincubated 20-50 minutes in 0.3% Polyethylenimine) with a Filtermate 196 harvester (Packard BioScience) and washed 4 times with cold Potassium Phosphate 10 mM pH 7.4, KCl 100 mM binding buffer. After anhydrousing, filter-retained radioactivity was detected by liquid scintillation counting. Ki values were calculated using Excel-Fit (Microsoft) and are the means of two determinations.

[2] = target: human GABAA α2β2γ1 receptor (Homo sapiens (Human), UniProt P47869+Q8N1C3); experiment: Radioligand binding assay for γ1-containing GABAA subtypes, [3H]RO7239181 competition (α2β2γ1)
Method: as §1, §2, §3, §4

[3] = target: human GABAA α1β3γ2 receptor (Homo sapiens (Human), UniProt P14867+P18507); experiment: Radioligand binding assay for γ2-containing GABAA subtypes, [3H]Flumazenil competition (α1β3γ2); details: for γ2/γ1 Selectivity Ratio: Ki α1β3γ2 (nM)/Ki α2β2γ1 (nM); for LogSel: Log[Ki α1β3γ2 (nM)/Ki α2β2γ1 (nM)]
Method: The affinity of compounds at GABAA γ2 subunit-containing receptors was measured by competition for [^3H]Flumazenil (81.1 Ci/mmol; Roche) binding to HEK293F cells expressing human (transiently transfected) receptors of composition α1β3γ2.
Harvested pellets from HEK293F cells expressing the different GABAA γ2 receptor subtypes were resuspended in Mannitol Buffer pH 7.2-7.4 and processed as described above for the cells expressing the GABAA γ1 subunit-containing receptors.
Assays were incubated to equilibrium for 1 hour at 4° C. and harvested onto GF/C uni-filters (Packard) by filtration using a Packard harvester and washing with ice-cold wash buffer (50 mM Tris; pH 7.5). After anhydrousing, filter-retained radioactivity was detected by liquid scintillation counting. Ki values were calculated using Excel-Fit (Microsoft) and are the means of two determinations.

[4] = target: α2β2γ1 GABAA receptor subtype (Homo sapiens (Human), UniProt P47869+Q8N1C3); experiment: Two-electrode voltage clamp electrophysiology in Xenopus oocytes expressing GABAA receptors (modulation of GABA EC20 current); type: cell-based; details: for Efficacy (GABA)%: % modulation of GABA EC20 = 100*(Fold increase-1), α2β2γ1 oocytes, compound at approx. 30-fold Ki; for Fold increase h-GABA-A α2β2γ1 oocyte @ 30-fold Ki: Xenopus oocytes expressing α2β2γ1, compound at approx. 30-fold its Ki α2β2γ1, GABA EC20 current
Method: Xenopus laevis oocytes at maturation stages V-VI were used for the expression of cloned mRNA encoding GABAA receptor subunits. Oocytes ready for RNA micro-injection were bought from Ecocyte, Castrop-Rauxel, Germany and stored in modified Barth's medium (composition in mM: NaCl 88, KCl 1, NaHCO3 2.4, HEPES 10, MgSO4 0.82, CaNO3 0.33, CaCl2 0.33, pH=7.5) at 20° C. until the experiment.
Oocytes were plated in 96-well plates for microinjection using the Roboinject automated instrument (MultiChannelSystems, Reutlingen, Germany). Approximately 50 nL of an aqueous solution containing the RNA transcripts for the subunits of the desired GABAA receptor subtype was injected into each oocyte. […] Oocytes were kept in modified Barth's medium (composition in mM: NaCl 88, KCl 1, NaHCO3 […], HEPES 10, MgSO4 0.82, CaNO3 0.33, CaCl2 0.33, pH=7.5) at 20° C. until the experiment.
Electrophysiological experiments were performed using the Roboocyte instrument (MultiChannelSystems, Reutlingen, Germany) on days 3 to 5 after the micro-injection of mRNA. During the experiment the oocytes were constantly superfused by a solution containing (in mM) NaCl 90, KCl 1, HEPES 5, MgCl2 1, CaCl2 1 (pH 7.4). Oocytes were impaled by two glass microelectrodes (resistance: 0.5-0.8 MΩ) which were filled with a solution containing KCl 1M+K-acetate 1.5 M and voltage-clamped to −80 mV. The recordings were performed at room temperature using the Roboocyte two-electrode voltage clamp system (Multichannelsystem). After an initial equilibration period of 1.5 min GABA was added for 1.5 min at a concentration evoking approximately 20% of a maximal current response (EC20). After another rest interval of 2.5 min GABA was again added evoking a response of similar amplitude and shape. […] Current traces were recorded at a digitization rate of 10 Hz during and shortly before and after the GABA application.
Each compound and concentration was tested on at least 3 oocytes. Different oocytes were used for different compound concentrations.
For the analysis, the digitized current traces of the first and second GABA response were superimposed and, if necessary, rescaled to equal maximal amplitudes. The ratio between the two responses during the time interval of test compound application was calculated point by point. The extremum of the resulting “ratio trace” was taken as the efficacy (“Fold increase”) of the compound expressed as “% modulation of GABA EC20” (100*(Fold increase-1)).

[5] = Ki h-GABAA α2β2γ1, [3H]RO7239181 competition binding, human GABAA α2β2γ1
[6] = Ki h-GABAA α2β2γ1, displacement of [3H]RO7239181, membranes of HEK293F cells expressing human receptors, means of two determinations

Structure (SMILES) | Ki [1] | Ki [2, 5] | Ki [2, 6] | Ki [3] | γ2/γ1 Selectivity Ratio [3] | LogSel [3] | Efficacy (GABA)% [4] | Fold increase h-GABA-A α2β2γ1 oocyte @ 30-fold Ki [4]
C[C@@H]1N=C(c2c(F)cccc2F)c2c(ccc(Cl)c2Cl)-n2nc(C(=O)N3CC[C@@H](O)C3)nc21 [Example 47, [(4S)-7,8-dichloro-6-(2,6-difluorophenyl)-4-methyl-4H-[1,2,4]triazolo[1,5-a][1,4]benzodiazepin-2-yl]-[(3R)-3-hydroxypyrrolidin-1-yl]methanone] | 1.44 nM | 3.4 nM | 3.43 nM | 1010 nM | 294.7 | 2.47 | 74% | 1.74
C[C@@H]1N=C(c2c(F)cccc2F)c2c(ccc(Cl)c2Cl)-n2cc(C#N)nc21 [Example 74, (4S)-7,8-dichloro-6-(2,6-difluorophenyl)-4-methyl-4H-imidazo[1,2-a][1,4]benzodiazepine-2-carbonitrile] | 0.7 nM | 9.6 nM | 9.6 nM | 593 nM | 61.8 | 1.79 | 75% | 1.75
C[C@@H]1N=C(c2ncccc2F)c2c(ccc(C(F)(F)F)c2Cl)-n2cc(C(=O)N[C@H]3C[C@@H](O)C3)nc21 [Example 166, (4S)-7-chloro-6-(3-fluoro-2-pyridyl)-N-(cis-3-hydroxycyclobutyl)-4-methyl-8-(trifluoromethyl)-4H-imidazo[1,2-a][1,4]benzodiazepine-2-carboxamide] | 9.14 nM | 46.5 nM | 43.4 nM | 10200 nM | 234.5 | 2.37 | 184% | 2.84
C[C@@H]1N=C(c2ncccc2F)c2c(ccc(Cl)c2Cl)-n2nc(C(=O)N3CC4(CCOC4)C3)nc21 [Example 100, [(4S)-7,8-dichloro-6-(3-fluoro-2-pyridyl)-4-methyl-4H-[1,2,4]triazolo[1,5-a][1,4]benzodiazepin-2-yl]-(6-oxa-2-azaspiro[3.4]octan-2-yl)methanone] | 7.53 nM | 41.5 nM | 41.5 nM | 9110 nM | 219.5 | 2.34 | 128% | 2.28
C[C@@H]1N=C(c2c(F)cccc2F)c2c(ccc(C(F)(F)F)c2Cl)-n2ccnc21 [Example 150, (4S)-7-chloro-6-(2,6-difluorophenyl)-4-methyl-8-(trifluoromethyl)-4H-imidazo[1,2-a][1,4]benzodiazepine] | 1.33 nM | 7.3 nM | 7.3 nM | 758 nM | 103.2 | – | 70% | –
C[C@@H]1N=C(c2c(F)cccc2F)c2c(ccc(C(F)(F)F)c2Cl)-n2nc(NC(=O)N3C4CC3CS(=O)(=O)C4)nc21 (single isomer, unassigned) [Example 134] | 2.36 nM | 19.3 nM | 19.3 nM | 1480 nM | 76.7 | 1.88 | 101% | 2.01
O=C(NC1COC1)c1nc2n(n1)-c1ccc(Cl)c(Cl)c1C(c1c(F)cccc1F)=NC2 [Example 10, 7,8-dichloro-6-(2,6-difluorophenyl)-N-(oxetan-3-yl)-4H-[1,2,4]triazolo[1,5-a][1,4]benzodiazepine-2-carboxamide] | 0.79 nM | 3.1 nM | 3.06 nM | 445 nM | 145.5 | 2.16 | 70% | 1.70
C[C@@H]1N=C(c2ncccc2F)c2c(ccc(Cl)c2Cl)-n2nc(C(=O)N3CC4(CCO4)C3)nc21 [Example 98, [(4S)-7,8-dichloro-6-(3-fluoro-2-pyridyl)-4-methyl-4H-[1,2,4]triazolo[1,5-a][1,4]benzodiazepin-2-yl]-(1-oxa-6-azaspiro[3.3]heptan-6-yl)methanone] | 29.8 nM | 81.7 nM | 81.8 nM | 8110 nM | 99.2 | 2.00 | 158% | 2.58
C[C@@H]1N=C(c2c(F)cccc2F)c2c(ccc(Cl)c2Cl)-n2nc(C(=O)N3CC(CF)C3)nc21 [Example 72, [3-(fluoromethyl)azetidin-1-yl]-[(4S)-7,8-dichloro-6-(2,6-difluorophenyl)-4-methyl-4H-[1,2,4]triazolo[1,5-a][1,4]benzodiazepin-2-yl]methanone] | 1.1 nM | 7.2 nM | 7.2 nM | 727 nM | 100.6 | 2.00 | 44% | 1.44
COC1CN(C(=O)c2nc3n(n2)-c2ccc(Cl)c(Cl)c2C(c2ncccc2F)=NC3)C1 [Example 62, [7,8-dichloro-6-(3-fluoro-2-pyridyl)-4H-[1,2,4]triazolo[1,5-a][1,4]benzodiazepin-2-yl]-(3-methoxyazetidin-1-yl)methanone] | 3.7 nM | 9 nM | 9 nM | 773 nM | 85.7 | 1.93 | 93% | 1.93
